From US20260284016A1, “COMBINATIONS AND METHODS FOR ENHANCING CHECKPOINT INHIBITOR THERAPIES IN CANCER TREATMENT” (PURDUE RESEARCH FOUNDATION, priority 2004, published 2026)

Assays:
[1] = system: peripheral blood mono nuclear cells (PBMCs); experiment: IL-6 in PBMC culture supernatant by ELISA; format: cell-based; details: 24 hours
Protocol: To evaluate the efficacy of TLR-7 agonists, Compound 1 (TLR7-TA), Compound 2 (TLR7-1B) and Compound 3 (TLR7-1C) were treated with peripheral blood mono nuclear cells (PBMCs) for 24 hours. TLR7-1 was used as control. Cell culture supernatant was isolated and tested for IL-6 using enzyme-linked immunosorbent assay (ELISA) (FIG. 22).

[2] = system: human primary monocyte-derived M2-macrophages; experiment: IL-6 and CXCL-10 induction in monocyte-derived M2-macrophages; format: cell-based; details: 48 hours

## Nc1nc2ncc(CNc3ccc(C(=O)NC(CCC(=O)N[C@@H](CSSCCOC(=O)OCC4CCCN(CCNc5ccc(Cn6c(=O)[nH]c7c(N)nc(C(F)(F)F)cc76)cn5)C4)C(=O)O)C(=O)O)cc3)nc2c(=O)[nH]1 (stereo partly shown) [Compound 3]
[1]
  IL-6 in culture supernatant: increased expression of IL-6
[2]
  CXCL-10 induction compared to parent compound TLR7-1: more efficiently
  IL-6 induction compared to parent compound TLR7-1: more efficiently
  macrophage polarization (M1 markers IL-6, CXCL10): polarize the M2 macrophages to M1 macrophages
